≈ marks a conversion by molar mass, not a printed value.
Tests used:
[1] = test system: H460 (lung carcinoma); experiment: Antiproliferative activity in vitro, MTT assay, 72 h; assay type: cell-based; settings: Homo sapiens, NCI-H460, 72 h incubation
Method: (§1) The experiments were carried out on four human cell lines which are derived from three cancer types: H460 (lung carcinoma), HCT 116 (colorectal carcinoma), MCF-7 (human breast cancer) and the non-cancerous cell line HEK 293 (human embryonic kidney).
(§2) The results are compared with the known antiproliferative agents doxorubicin and etoposide. […] Therefore, it is not clear whether the observed antiproliferative activity is due to the biological activity of the compounds or to precipitation.
(§3) The experiments were performed on four human cell lines, including HCT 116 (colon carcinoma), H 460 (lung carcinoma), MCF-7 (breast carcinoma) and HEK 293 (human embryonic kidney cells), in line with previously published experimental procedures. Briefly, the cells were grown in DMEM medium with the addition of 10% fetal bovine serum (FBS), 2 mM of L-glutamine, 100 U/mL of penicillin and 100 µg/mL of streptomycin and cultured as monolayers at 37 °C in a humidified atmosphere with 5% CO2. Cells were seeded at 2 × 10^3 cells/well in standard 96-well microtiter plates and left to attach for 24 h. The next day, a test compound was added in five serial 10-fold dilutions. The rate of cell growth was evaluated after 72 h of incubation with MTT assays. […] Each test was performed in quadruplicate in at least two individual experiments.

[2] = test system: HCT 116 (colorectal carcinoma); experiment: as above; assay type: cell-based; settings: Homo sapiens, 72 h incubation, '-' with footnote a = did not show biological activity due to precipitation
Method: as §1, §2, §3

[3] = test system: MCF-7 (human breast cancer); experiment: as above; assay type: cell-based; settings: MCF7, 72 h incubation
Method: as §1, §2, §3

[4] = test system: HEK 293 (human embryonic kidney); experiment: Antiproliferative activity in vitro, MTT assay, 72 h, non-cancerous cell line; assay type: cell-based; settings: HEK293, 72 h incubation, '-' with footnote a = did not show biological activity due to precipitation
Method: as §1, §2, §3

[5] = Ferric reducing/antioxidant power (FRAP assay); parameters: FRAP: unit not given here; settings: for FRAP: Fe2+ equivalents, triplicate; for FRAP ferric reducing/antioxidant power, in words: compared to the standard BHT
Method: (§4) The synthesized benzazole acrylonitrile derivatives were screened for their antioxidative potency by using in vitro assays, namely DPPH and ABTS as free radical scavenging assays and FRAP as a ferric reducing/antioxidant power assay.
The antioxidant activity of a substance is directly related to its reducing power.
The FRAP method was carried out according to previously described procedures with some modifications to make it compatible with an assay on a 96-well microplate. All results were expressed as Fe^2+ equivalents (Fe^2+ µmol). Ferrous sulphate (FeSO4 × 7H2O) was used to develop a standard curve of 20–2000 µmol/l for the FRAP test.

[6] = DPPH free radical scavenging assay; settings: compared to the standard BHT
Text: as §4
(§5) The well-known antioxidant butylated hydroxytoluene (BHT) was used as a standard for comparing activity during testing. The DPPH assay is a standard commonly used test for the in vitro assessment of the antioxidant capacity of novel compounds by using their ability to scavenge the stable radical 1,1-diphenyl-picrylhydrazyl. […] Another test used to evaluate the antioxidative capacity of novel compounds was the ABTS test, by which their activity was evaluated by scavenging the stable radical 3-ethylbenzthiazoline-6-sulphonic acid.
Determination of the reducing activity of the stable radical 1,1-diphenyl-picrylhydrazyl (DPPH):
The reducing activity of the investigated systems was measured by the DPPH method according to previously described procedures with modifications to ensure their use on a 96-well microplate. Briefly, equal volumes of various concentrations of the tested molecules (dissolved in DMSO) were added to a solution of DPPH (final concentration of 50 µM in absolute ethanol). Ethanol and DMSO were used as control solutions in line with earlier reports. The radical scavenging activity was calculated using the following formula:[(A517 control − A517 compound)/A517 control] × 100.
The IC50 values were calculated from dose–response curves using nonlinear regression analysis with the GraphPad Prism 8 Ink. program. All measurements were carried out in triplicate.

[7] = test system: HCT 116 cells; experiment: Antioxidative activity assay in cells (ROS level, DCFH-DA fluorescence); assay type: cell-based, human; settings: HCT 116, TBHP 100 µM plus 10 µM compound, 1 h, compared to NAC
Text: We further selected compounds 9, 10, 32 and 36, showing quite pronounced antioxidant capacity in the DPPH and FRAP assays, in order to test their pro- and antioxidant activity in tumor cells. In order to test the antioxidant activity of the selected compounds in tumor cells (Figure 2), we treated HCT 116 cells with tert-butyl hydroperoxide (TBHP), a substance commonly used for inducing oxidative stress in cells and tissues, alone or in combination with a known antioxidative agent, N-acetyl-L-cysteine (NAC), or the tested compounds. We measured the formation of oxidative stress byproducts using 2′,7′-dichlorodihydrofluorescein diacetate (DCFH-DA).
For the antioxidative activity assay, 2.5 × 10^4 cells were seeded into 96-well microtiter plates and left to attach for 24 h. The next day, cells were washed with PBS and incubated in FBS-free DMEM medium with 25 µM of DCFH-DA fluorescence dye. After 45 min of incubation, the medium was discarded, and the cells were washed with PBS.
After the washing step, the cells were incubated with 100 µM of tert-butyl hydroperoxide (TBHP) alone or in combination with antioxidative agents (50 mM of N-Acetyl-L-cysteine-NAC or 10 µM of the tested compounds) in PBS for 1 h at 37 °C. DCFH-DA fluorescence was recorded on a microplate fluorimeter reader (Tecan) with an excitation beam of 485 nm, while the emitted fluorescence was collected at 535 nm. All tests were presented as the means of two independent measurements carried out in triplicate. One-way ANOVA with Tukey’s post hoc test was used for statistical analysis: *—p < 0.05; **—p < 0.01; ***—p < 0.001.
Figure 2 Antioxidative activity of selected systems. HCT 116 cells were treated with a combination of H2O2 (4 mM) and N-acetyl-L-cysteine (NAC, 10 mM) or the tested compounds (10 mM). Treatment with H2O2 (4 mM) alone was used as a control for ROS induction. The level of reactive oxygen species (ROS) was measured with the fluorescent dye DCFH-DA using a fluorimeter. The data presented here are the results of three independent measurements carried out in triplicate. A one-way ANOVA with Tukey’s post hoc test was used for statistical analysis, *** p < 0.001; ns—not significant.

[8] = test system: S. aureus ATCC 29213; experiment: Antibacterial activity in vitro, broth microdilution MIC; assay type: cell-based, Staphylococcus aureus; settings: for MIC S. aureus ATCC 29213: broth microdilution, 16–24 h at 37 °C, unit inferred; for MIC: Staphylococcus aureus, ATCC29213, read-out: MIC S. aureus
Method: (§6) The in vitro antibacterial activity of the synthesized benzamides 7–12 and 31–37 was evaluated against a panel of eight different bacterial strains. The Gram-positive bacterial strains comprised S. aureus, S. pneumoniae and E. faecalis, and the panel of Gram-negative bacteria consisted of E. coli, K. pneumoniae, A. baumannii and P. aeruginosa.
(§7) The selected bacterial strains were Gram-negative Escherichia coli (ATCC 25922) and Gram-positive Staphylococcus aureus (ATCC 29213) and S. Pneumoniae (ATCC 49619). The Saccharomyces cerevisiae ATCC 7752 strain was tested as a eukaryotic model organism. Synthesized compounds were prepared as 10 mM DMSO solutions and tested in a final concentration range of 100–0.2 µM [39].
(§8) Broth microdilution testing was performed according to CLSI (Clinical Laboratory Standards Institute) guidelines. The MIC (minimal inhibitory concentration) value was defined as the last tested concentration of a compound at which there is no visible growth of bacteria. Inoculums for each microorganism were prepared using the direct colony suspension method, where broth solutions that achieved turbidity equivalent to 0.5 McFarland standards were additionally diluted 100× with cation-adjusted MH media (Becton Dickinson). All test plates were incubated for 16–24 h at 37 °C.

[9] = test system: A. baumannii ATCC 17978; experiment: as above; assay type: cell-based; settings: 16–24 h at 37 °C, unit inferred
Method: as §6, §7, §8

[10] = test system: E. faecalis ATCC 29212; experiment: as above; assay type: cell-based; settings: for MIC E. faecalis ATCC 29212: broth microdilution, 16–24 h at 37 °C, unit inferred; for Selectivity of antibacterial activity, in words: against the Gram-positive strain E. faecalis
Method: as §6, §7, §8

[11] = test system: P. aeruginosa ATCC 27853; experiment: as above; assay type: cell-based; settings: 16–24 h at 37 °C, unit inferred
Method: as §6, §7, §8

[12] = test system: E. coli ATCC 25922; experiment: as above; assay type: cell-based, Escherichia coli; settings: 16–24 h at 37 °C, unit inferred
Method: as §6, §7, §8

[13] = test system: E. coli efflux del.; experiment: microbe, parasite or virus in culture; assay type: cell-based, Escherichia coli; settings: for MIC E. coli efflux del.: broth microdilution, 16–24 h at 37 °C, unit inferred
Method: as §6, §7, §8

[14] = ABTS radical scavenging assay; settings: for IC50: head prints 'mM (* µM)', no cell carries an asterisk
Text: as §4, §5
The total antioxidant activity (TEAC) method was adapted for use with a microplate reader. […] On the day of analysis, the ABTS•+ solution was diluted with PBS (pH7.4) to attain an absorbance of 0.700 ± 0.01 at 734 nm. This radical state remained stable for over two days when stored in the dark at room temperature. The standards and solutions of the tested compounds (10 µL) were mixed with the working ABTS•+ solution (200 µL) in microplate wells and incubated at room temperature for 5 min. The reduction in absorbance at 734 nm was measured using a µQuant (Biotec Inc., Auburn, CA, USA) microplate reader. The percentage scavenging of the test samples at each concentration was calculated using the following formula:[(Abscontrol − Abscompound)/Abscontrol] × 100
The IC50 values for each compound were calculated from dose–response curves. All measurements where carried out in triplicate with a linear regression analysis.

| SMILES | IC50 [1] | IC50 [2] | IC50 [3] | IC50 [4] | FRAP [5] | FRAP ferric reducing/antioxidant power, in words [5] | DPPH free radical scavenging activity, in words [6] | Level of ROS in cells under induced oxidative stress [7] | MIC S. aureus ATCC 29213 [8] | MIC A. baumannii ATCC 17978 [9] | MIC E. faecalis ATCC 29212 [10] | MIC P. aeruginosa ATCC 27853 [11] | MIC E. coli ATCC 25922 [12] | MIC E. coli efflux del. [13] | MIC [8] | melting point | IC50 [14] | Selectivity of antibacterial activity, in words [10] | further results |
| --- | --- | --- | --- | --- | --- | --- | --- | --- | --- | --- | --- | --- | --- | --- | --- | --- | --- | --- | --- |
| Cn1c(NC(=O)c2cc(O)c(O)c(O)c2)nc2ccccc21 [Compound 9, 3,4,5-trihydroxy-N-(1-methyl-1H-benzo[d]imidazol-2-yl)benzamide] | > 100 µM | > 100 µM | 35.5 ± 5.2 µM | 32.3 ± 6.5 µM | 4036.77 ± 8.82 | excellent in vitro antioxidant activity | significantly improved | reducing the level of ROS in the cells | 64 µM (≈ 19.2 µg/mL) | > 64 µM | 64 µM (≈ 19.2 µg/mL) | > 64 µM | > 64 µM | > 64 µM |  |  |  |  |  |
| Cn1c(NC(=O)c2cc(O)c(O)c(O)c2)nc2cc(C#N)ccc21 [Compound 36, N-(5-cyano-1-methyl-1H-benzo[d]imidazol-2-yl)-3,4,5-trihydroxybenzamide] | 48.3 ± 10.5 µM | 19.3 ± 6.4 µM | 4.8 ± 0.7 µM | 25.3 ± 0.7 µM | 2396.01 ± 35.27 | excellent in vitro antioxidant activity | significantly improved | reducing the level of ROS in the cells | 32 µM (≈ 10.4 µg/mL) | > 64 µM | 64 µM (≈ 20.8 µg/mL) | > 64 µM | > 64 µM | > 64 µM | 32 µM (≈ 10.4 µg/mL) | 245 to 251 °C |  |  |  |
| O=C(Nc1nc2ccccc2[nH]1)c1ccc(O)cc1O [Compound 31, N-(1H-benzo[d]imidazol-2-yl)-2,4-dihydroxybenzamide] | > 100 µM | 38.6 ± 15.6 µM | 35.1 ± 6.9 µM | 24.5 ± 6.4 µM | 89.29 ± 21.92 |  |  |  | > 64 µM | > 64 µM | 32 µM (≈ 8.62 µg/mL) | > 64 µM | > 64 µM | 64 µM (≈ 17.2 µg/mL) |  | 212 to 214 °C | 0.13 ± 0.006 mM | selective antibacterial activity |  |
| Cc1cc(C(C)(C)C)c(O)c(C(C)(C)C)c1 [BHT, butylated hydroxytoluene, reference compound] |  |  |  |  |  |  |  |  |  |  |  |  |  |  |  |  | 0.02312 ± 0.00012 mM |  |  |
| Cn1c(NC(=O)c2ccc(O)cc2O)nc2cc(C#N)ccc21 [Compound 35, N-(5-cyano-1-methyl-1H-benzo[d]imidazol-2-yl)-2,4-dihydroxybenzamide] | > 100 µM | 10 ± 1.6 µM | 8.7 ± 1.5 µM | 33.5 ± 6.5 µM | 278.61 ± 3.28 |  |  |  | > 64 µM | > 64 µM | 16 µM (≈ 4.93 µg/mL) | > 64 µM | > 64 µM | 64 µM (≈ 19.7 µg/mL) |  | 273 to 275 °C | 0.19 ± 0.04 mM | selective antibacterial activity |  |
| CCCCCCn1c(NC(=O)c2cc(O)c(O)c(O)c2)nc2cc(C#N)ccc21 [Compound 37, N-(5-cyano-1-hexyl-1H-benzo[d]imidazol-2-yl)-3,4,5-trihydroxybenzamide] | 47 ± 8.7 µM | 37.8 ± 6 µM | 38.2 ± 3.2 µM | 37.9 ± 0.4 µM | 2780.81 ± 15.12 | excellent in vitro antioxidant activity | significantly improved |  | 16 µM (≈ 6.31 µg/mL) | > 64 µM | 16 µM (≈ 6.31 µg/mL) | > 64 µM | > 64 µM | 16 µM (≈ 6.31 µg/mL) | 16 µM (≈ 6.31 µg/mL) | 290 to 294 °C | 0.002 ± 0.0001 mM | selective antibacterial activity | ABTS antioxidative activity, in words ([14]; in comparison to the standard BHT): pronounced antioxidative activity; MIC ([10]; Enterococcus faecalis, ATCC29212, read-out: MIC E. faecalis): 16 µM (≈ 6.31 µg/mL); MIC ([13]; Escherichia coli, read-out: MIC E. coli efflux del.): 16 µM (≈ 6.31 µg/mL) |

Reference: article PMC11085308, “Design, Synthesis and Biological Activity of Novel Methoxy- and Hydroxy-Substituted N-Benzimidazole-Derived Carboxamides” (Molecules, 2024)
